Data: US8637274B2, “Inhibitor for the formation of gamma-secretase complex” (Kowa Company, Ltd., priority 2003, dated 2014)

How the values were obtained:
Type in all cases: cell-based
[1] = tested on: cholesterol in lipid rafts of SH-SY5Y cell; assay: Quantification of cholesterol content in sucrose density-gradient cell membrane fractions (lipid rafts = fraction 3); details: for cholesterol content in lipid rafts (fraction 3): 5% LPDS, 48 hours, FIG. 4
Procedure: (§1) SH-SY5Y cell line (Invitrogen) was subcultured in a complete medium (DMEM (Sigma) containing 10% of fetal bovine serum (Sigma), 100 units/mL of penicillin and […] of streptomycin) using a dish of 15 cm diameter at 37° C.
(§2) The SH-SY5Y cell was cultured in a dish of 15 cm diameter, and the cells reached confluent growth in the dish was washed with phosphate buffered saline (PBS). The cells were detached from the dish using cell scraper and recovered in PBS, then centrifuged at 9807 m/s^2 for 5 minutes. The precipitated cells were suspended in buffer R (20 mM Tris-HCl pH 7.6, 150 mM NaCl, 1 mM EDTA) containing 200 μL of a mixture of 2% CHAPSO and proteases (Complete protease mixture) (Roche). Solubilization of the cell was performed by means of leaving the cell suspension for standing on an ice bath for 20 minutes. After solubilizing, 800 μL of the buffer R containing 56.25% sucrose was added to make the final concentration to be 45% sucrose and 0.4% CHAPSO, and placed in the bottom of centrifuging tube. Further, 3 mL of the buffer R containing 35% sucrose and 1 mL of the buffer R containing 5% sucrose were overlaid sequentially on top of the layers. After centrifugation at 980700 m/s^2 (32000 rpm) for 16 hours at 4° C. using Beckman ultracentrifuge equipped with SW55 rotor, each 500 μL aliquot was withdrawn from top as fractions.
(§3) The SH-SY5Y cell was cultured in a dish of 15 cm diameter, and the cells reached confluent growth in the dish were washed with PBS. After that, methyl-β-cyclodextrin (Sigma) dissolved in DMEM to make the final concentration to be 0 to 2 mM was added to the dish, and cultured at 37° C. for another 30 minutes. These cells were processed and fractionated according to the method described in the Reference Example 2, and subjected to the immunoblotting.
The SH-SY5Y cell was cultured in a dish of 15 cm diameter and the cells of just before arriving confluent growth in a dish were washed with PBS. […]

[2] = tested on: active complex of γ-secretase (nicastrin, presenilin-1, presenilin-2, Pen-2) in lipid rafts of SH-SY5Y cell; assay: Immunoblotting of γ-secretase constituents in sucrose density-gradient cell membrane fractions; details: for constituents of γ-secretase (nicastrin, presenilin-1, presenilin-2) in lipid rafts fraction (fraction 3): FIG. 3A-3C
Procedure: as §1, §2
(§4) After SDS-polyacrylamide gel electrophoresis was carried out for each fraction obtained in the Reference Example 2, immunoblotting was performed. The antibodies used were nicastrin N-19 (Santa Cruz) as a nicastrin recognizing antibody, anti-G1L3 as an antibody recognizing C-terminal region of presenilin 1, anti-G2L as an antibody recognizing C-terminal region of presenilin 2, anti-PNT3 as a PEN-2 recognizing antibody, Flotillin-1 (BD Sciences) as a flotillin-1 recognizing antibody, and Calnexin (BD Biosciences) as a calnexin recognizing antibody.
After reacting at room temperature for 1 hour or at 4° C. overnight, the gels were washed twice with TBS-Tween (20 mM Tris-buffered saline, pH 7.4, 0.05% Tween 20). Then, the gels were reacted with HRP-conjugated anti mouse IgG antibody, anti goat IgG antibody, or anti rabbit IgG antibody each for 1 hour, and washed with TBS-Tween. And then, an X-ray film was exposed to the chemiluminescence generated using SuperSignal West Dura (Pierce).
as §3
The SH-SY5Y cell was cultured in a dish of 15 cm diameter and the cells of just before arriving confluent growth in a dish were washed with PBS. After that, the cells were cultured in DMEM containing 5% of LPDS, 250 μM of mevalonic acid and 50 μM of compactin or 5 μM of pitavastatin as a cholesterol synthesis inhibitor for 48 hours. These cells were processed and fractionated according to the method described in the Reference Example 2, and subjected to the immunoblotting.

[3] = tested on: flotillin-1 (marker protein of lipid rafts), SH-SY5Y cell; assay: Immunoblotting of lipid raft marker flotillin-1 in sucrose density-gradient cell membrane fractions; details: for flotillin in the lipid rafts fraction (structure of lipid rafts): 48 hours, FIG. 3D
Procedure: as §1, §2, §4
After reacting at room temperature for 1 hour or at 4° C. overnight, the gels were washed twice with TBS-Tween (20 mM Tris-buffered saline, pH 7.4, 0.05% Tween 20). […]

[4] = 50 μM compactin plus 250 μM mevalonic acid
[5] = 50 μM compactin plus 250 μM mevalonic acid, 48 hours
[6] = 5 μM pitavastatin plus 250 μM mevalonic acid
[7] = 5 μM pitavastatin plus 250 μM mevalonic acid, 48 hours

CC[C@H](C)C(=O)O[C@H]1CCC=C2C=C[C@H](C)[C@H](CC[C@@H]3C[C@@H](O)CC(=O)O3)[C@H]21 [compactin, (+)-(1S,3R,7S,8S.8aR)-1,2,3,7,8,8a-hexahydro-7-methyl-8-[2-[(2R,4R)-tetrahydro-4-hydroxy-6-oxo-2H-pyran-2-yl]ethyl]-1-naphthyl (S)-2-methylbutyrate]
cholesterol content in lipid rafts (fraction 3) [1, 4]: decreased | formation of an active complex of γ-secretase in lipid rafts [2, 5]: inhibited the formation of an active complex of γ-secretase in lipid rafts | constituents of γ-secretase (nicastrin, presenilin-1, presenilin-2) in lipid rafts fraction (fraction 3) [2, 5]: disappeared from lipid rafts fraction | flotillin in the lipid rafts fraction (structure of lipid rafts) [3, 4]: still remained in the lipid rafts fraction

O=C(O)C[C@H](O)C[C@H](O)/C=C/c1c(C2CC2)nc2ccccc2c1-c1ccc(F)cc1 [pitavastatin, (3R,5S,6E)-7-[2-cyclopropyl-4-(4-fluorophenyl)-3-quinolyl]-3,5-dihydroxy-6-heptenoic acid]
cholesterol content in lipid rafts (fraction 3) [1, 6]: decreased | formation of an active complex of γ-secretase in lipid rafts [2, 7]: inhibited the formation of an active complex of γ-secretase in lipid rafts | constituents of γ-secretase (nicastrin, presenilin-1, presenilin-2) in lipid rafts fraction (fraction 3) [2, 7]: disappeared from lipid rafts fraction | flotillin in the lipid rafts fraction (structure of lipid rafts) [3, 6]: still remained in the lipid rafts fraction

methyl-β-cyclodextrin
cholesterol in lipid rafts (fraction 3) ([1]; methyl-β-cyclodextrin 0 to 2 mM, 30 minutes, 37° C., FIG. 2): removed from lipid rafts | formation of an active complex of γ-secretase in lipid rafts ([2]; methyl-β-cyclodextrin 0 to 2 mM, 30 minutes): inhibited the formation of an active complex of γ-secretase in lipid rafts | constituents of γ-secretase (nicastrin, presenilin-1, presenilin-2, Pen-2) in lipid rafts fraction (fraction 3) ([2]; methyl-β-cyclodextrin 0 to 2 mM, 30 minutes, FIG. 1A-1D): disappeared from lipid rafts fraction | distribution of flotillin (marker protein of lipid rafts) among fractions / raft structure ([3]; methyl-β-cyclodextrin 0 to 2 mM, 30 minutes, FIG. 1E): moved from the original position of the lipid rafts of fraction 3 to fraction 9 and 10
